From ChEMBL document CHEMBL4373728, “Primaquine derivatives: Modifications of the terminal amino group” (Eur J Med Chem, 2019)
≈ marks a conversion by molar mass, not a printed value.

Tests used:
Pseudomonas aeruginosa = assay: Antimicrobial activity against Pseudomonas aeruginosa; type: functional
Escherichia coli [1] = assay: Anti-biofilm activity against Escherichia coli; type: functional
Staphylococcus aureus [2] = assay: Antimicrobial activity against Staphylococcus aureus; type: functional
Escherichia coli [3] = assay: Antimicrobial activity against Escherichia coli; type: functional
Human coronavirus 229E = assay: Antiviral activity against Human coronavirus 229E; type: functional, organism-based
Plasmodium berghei = assay: Antimalarial activity against Plasmodium berghei infected in human Huh7 cells after 1 hr by luciferase reporter gene assay; type: functional, organism-based; conditions: Huh-7, 1 h
Plasmodium falciparum [4] = assay: Antimalarial activity against chloroquine-sensitive Plasmodium falciparum 3D7 by HRP2 assay; type: functional, organism-based
Plasmodium falciparum [5] = assay: Antimalarial activity against erythrocytic stage of Plasmodium falciparum by HRP2 assay; type: functional, organism-based
Plasmodium falciparum [6] = assay: Antimalarial activity against Plasmodium falciparum Dd2 by HRP2 assay; type: functional, organism-based
Sindbis virus = assay: Antiviral activity against Sindbis virus; type: functional, organism-based
Coxsackievirus B4 = assay: Antiviral activity against Coxsackievirus B4; type: functional, organism-based; conditions: Enterovirus B
[7] = tested on: Mammalian orthoreovirus 1; assay: Antiviral activity against Reovirus-1; type: functional, organism-based
Punta Toro virus = assay: Antiviral activity against Punta Toro virus; type: functional, organism-based
Staphylococcus aureus [8] = assay: Anti-biofilm activity against Staphylococcus aureus 630 after 24 hrs in aerobic condition by broth microdilution assay; type: functional
Staphylococcus aureus [9] = assay: Anti-biofilm activity against Staphylococcus aureus 3202 after 24 hrs in aerobic condition by broth microdilution assay; type: functional

COc1cc(NC(C)CCCNC(=O)NC(C(=O)NC(c2ccccc2)c2ccccc2)c2ccc(Cl)cc2)c2ncccc2c1 (centres undefined)
MIC (Pseudomonas aeruginosa): 25 µg/mL (≈ 39.3 µM)
MBEC (Escherichia coli [1]): 6.25 to 50 µg/mL
MIC (Staphylococcus aureus [2]): 6.5 µg/mL (≈ 10.2 µM)
MIC (Escherichia coli [3]): 25 µg/mL (≈ 39.3 µM)

COc1cc(NC(C)CCCNC(=O)NNC(=O)/C=C/c2cccc(C(F)(F)F)c2)c2ncccc2c1 (centres undefined)
EC50 (Human coronavirus 229E): 7.9 to 15 µM

COc1cc(NC(C)CCCNC(=O)NNC(=O)/C(C)=C/c2ccccc2)c2ncccc2c1 (centres undefined)
EC50 (Human coronavirus 229E): 7.9 to 15 µM

COc1cc(NC(C)CCCNC(=O)NNC(=O)/C=C/c2cc(C(F)(F)F)cc(C(F)(F)F)c2)c2ncccc2c1 (centres undefined)
EC50 (Human coronavirus 229E): 7.9 to 15 µM

COc1cc(NC(C)CCCNC(=O)NNC(=O)/C=C/c2ccc3c(c2)OCO3)c2ncccc2c1 (centres undefined)
EC50 (Human coronavirus 229E): 7.9 to 15 µM

COc1cc(NC(C)CCCNC(=O)NC(CC(C)C)C(=O)NC(c2ccccc2)c2ccccc2)c2ncccc2c1 (centres undefined)
MIC (Staphylococcus aureus [2]): 6.5 µg/mL (≈ 11.2 µM)

COc1cc(NC(C)CCCNC(=O)NC(C(=O)NC(c2ccccc2)c2ccc(Cl)cc2)c2ccccc2)c2ncccc2c1 (centres undefined)
MIC (Pseudomonas aeruginosa): 25 µg/mL (≈ 39.3 µM)
MBEC (Escherichia coli [1]): 6.25 to 50 µg/mL
MIC (Escherichia coli [3]): 25 µg/mL (≈ 39.3 µM)

COc1cc(NC(C)CCCNC(=O)NNC(=O)/C=C/c2ccc(C(F)(F)F)cc2)c2ncccc2c1 (centres undefined)
EC50 (Human coronavirus 229E): 7.9 to 15 µM

COc1cc(NC(C)CCCNC(=O)/C=C/C(=O)Nc2ccc(C(F)(F)F)cc2)c2ncccc2c1 (centres undefined)
IC50 (Plasmodium berghei): 0.11 to 0.39 µM
IC50 (Plasmodium falciparum [4]): 7.74 to 18.4 µM
IC50 (Plasmodium falciparum [5]): 7.74 to 18.4 µM
IC50 (Plasmodium falciparum [6]): 7.74 to 18.4 µM

COc1cc(NC(C)CCCNC(=O)/C=C/C(=O)Nc2cccc(C(F)(F)F)c2)c2ncccc2c1 (centres undefined)
EC50 (Sindbis virus): 3.1 to 5.5 µM
EC50 (Coxsackievirus B4): 3.1 µM
IC50 (Plasmodium berghei): 0.11 to 0.39 µM
IC50 (Plasmodium falciparum [4]): 7.74 to 18.4 µM
IC50 (Plasmodium falciparum [5]): 7.74 to 18.4 µM
EC50 [7]: 3.1 to 5.5 µM
IC50 (Plasmodium falciparum [6]): 7.74 to 18.4 µM
EC50 (Punta Toro virus): 3.1 to 5.5 µM

COc1cc(NC(C)CCCNC(=O)/C=C/C(=O)Nc2ccc(F)cc2)c2ncccc2c1 (centres undefined)
IC50 (Plasmodium berghei): 0.11 to 0.39 µM
IC50 (Plasmodium falciparum [4]): 7.74 to 18.4 µM
IC50 (Plasmodium falciparum [5]): 7.74 to 18.4 µM
MBEC (Staphylococcus aureus [8]): 6.3 µg/mL
IC50 (Plasmodium falciparum [6]): 7.74 to 18.4 µM
MBEC (Staphylococcus aureus [9]): 6.3 µg/mL

COc1cc(NC(C)CCCNC(=O)/C=C/C(=O)Nc2cccc(Cl)c2)c2ncccc2c1 (centres undefined)
EC50 (Sindbis virus): 3.1 to 5.5 µM
IC50 (Plasmodium berghei): 0.11 to 0.39 µM
IC50 (Plasmodium falciparum [4]): 7.74 to 18.4 µM
IC50 (Plasmodium falciparum [5]): 7.74 to 18.4 µM
EC50 [7]: 3.1 to 5.5 µM
IC50 (Plasmodium falciparum [6]): 7.74 to 18.4 µM
EC50 (Punta Toro virus): 3.1 to 5.5 µM

COc1cc(NC(C)CCCNC(=O)/C=C/C(=O)Nc2cccc(F)c2)c2ncccc2c1 (centres undefined)
IC50 (Plasmodium berghei): 0.11 to 0.39 µM
IC50 (Plasmodium falciparum [4]): 7.74 to 18.4 µM
IC50 (Plasmodium falciparum [5]): 7.74 to 18.4 µM
MBEC (Staphylococcus aureus [8]): 6.3 µg/mL
IC50 (Plasmodium falciparum [6]): 7.74 to 18.4 µM
MBEC (Staphylococcus aureus [9]): 6.3 µg/mL

COc1cc(NC(C)CCCNC(=O)/C=C/C(=O)Nc2ccc(Cl)cc2)c2ncccc2c1 (centres undefined)
IC50 (Plasmodium berghei): 0.11 to 0.39 µM
IC50 (Plasmodium falciparum [4]): 7.74 to 18.4 µM
IC50 (Plasmodium falciparum [5]): 7.74 to 18.4 µM
IC50 (Plasmodium falciparum [6]): 7.74 to 18.4 µM

COc1cc(NC(C)CCCN)c2ncccc2c1 (centres undefined) [PRIMAQUINE]
IC50 (Plasmodium berghei): 8.4 µM
